Test results: patent publication US20260083851A1 (AVILAR THERAPEUTICS, INC., priority 2022, published 2026)

The compounds below were run against T1, ASGP receptor (biotinylated ASGPR) (Homo sapiens, UniProt P07306). Conditions: SPR, Biacore 8K, 25° C.; Table 1A; read-out: ASGPR KD.
T1 construct: biotin (biotinylated)
T1 sequence (P07306 1-291): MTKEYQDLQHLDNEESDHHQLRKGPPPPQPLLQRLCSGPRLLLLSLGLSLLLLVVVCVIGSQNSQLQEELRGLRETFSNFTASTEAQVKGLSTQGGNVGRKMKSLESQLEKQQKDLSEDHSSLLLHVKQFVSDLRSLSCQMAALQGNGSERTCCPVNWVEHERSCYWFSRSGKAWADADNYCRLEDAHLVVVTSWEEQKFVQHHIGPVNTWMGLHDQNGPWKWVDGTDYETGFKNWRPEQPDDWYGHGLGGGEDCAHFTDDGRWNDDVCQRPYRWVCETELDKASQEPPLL
Format: binding

Kd	Structure (SMILES)
< 10 µM	O=C(NC[C@H]1OC[C@H](Nc2cncc(C(F)(F)F)n2)[C@@H](O)[C@H]1O)c1cccc(F)c1 [A24, N-(((2R,3R,4R,5S)-3,4-dihydroxy-5-((6-(trifluoromethyl)pyrazin-2-yl)amino)tetrahydro-2H-pyran-2-yl)methyl)-3-fluorobenzamide]
< 10 µM	O=C(NC[C@H]1OC[C@H](Nc2cncc(C(F)(F)F)n2)[C@@H](O)[C@H]1O)c1ncc2c(n1)CCNC2 [A86, N-(((2R,3R,4R,5S)-3,4-dihydroxy-5-((6-(trifluoromethyl)pyrazin-2-yl)amino)tetrahydro-2H-pyran-2-yl)methyl)-5,6,7,8-tetrahydropyrido[4,3-d]pyrimidine-2-carboxamide]

Continued, compound first:

Structure (SMILES)	Kd
O=C(O)COc1ccc(CC(=O)NC[C@H]2OC[C@H](Nc3cncc(C(F)(F)F)n3)[C@@H](O)[C@H]2O)cc1 [A1, 2-(4-(2-((((2R,3R,4R,5S)-3,4-dihydroxy-5-((6-(trifluoromethyl)pyrazin-2-yl)amino)tetrahydro-2H-pyran-2-yl)methyl)amino)-2-oxoethyl)phenoxy)acetic acid]	< 10 µM
O=C(O)c1ccc(N2CCC(CN3CCN(C[C@H]4OC[C@H](Nc5cccc(C(F)(F)F)n5)[C@@H](O)[C@H]4O)CC3)CC2)cc1 [A100, 4-(4-((4-(((2R,3R,4R,5S)-3,4-dihydroxy-5-((6-(trifluoromethyl)pyridin-2-yl)amino)tetrahydro-2H-pyran-2-yl)methyl)piperazin-1-yl)methyl)piperidin-1-yl)benzoic acid]	< 10 µM
O=C(O)COCC(=O)NC[C@H]1OC[C@H](Nc2cncc(C(F)(F)F)n2)[C@@H](O)[C@H]1O [A30, 2-(2-((((2R,3R,4R,5S)-3,4-dihydroxy-5-((6-(trifluoromethyl)pyrazin-2-yl)amino)tetrahydro-2H-pyran-2-yl)methyl)amino)-2-oxoethoxy)acetic acid]	< 10 µM
O=C(NC[C@H]1OC[C@H](Nc2cncc(C(F)(F)F)n2)[C@@H](O)[C@H]1O)c1ncccn1 [A4, N-(((2R,3R,4R,5S)-3,4-dihydroxy-5-((6-(trifluoromethyl)pyrazin-2-yl)amino)tetrahydro-2H-pyran-2-yl)methyl)pyrimidine-2-carboxamide]	< 10 µM
O=C(O)CNC[C@H]1OC[C@H](Nc2cncc(C(F)(F)F)n2)[C@@H](O)[C@H]1O [A26, (((2R,3R,4R,5S)-3,4-dihydroxy-5-((6-(trifluoromethyl)pyrazin-2-yl)amino)tetrahydro-2H-pyran-2-yl)methyl)glycine]	< 10 µM
O[C@@H]1[C@H](O)[C@@H](Nc2cncc(C(F)(F)F)n2)CO[C@@H]1CNc1cccnn1 [A37, (2R,3R,4R,5S)-2-((pyridazin-3-ylamino)methyl)-5-((6-(trifluoromethyl)pyrazin-2-yl)amino)tetrahydro-2H-pyran-3,4-diol]	< 10 µM
O=C(O)COCCOCC(=O)NC[C@H]1OC[C@H](Nc2nc(C(F)(F)F)ccc2F)[C@@H](O)[C@H]1O [A110, 2-(2-(2-((((2R,3R,4R,5S)-5-((3-fluoro-6-(trifluoromethyl)pyridin-2-yl)amino) 3,4-dihydroxytetrahydro-2H-pyran-2-yl)methyl)amino)-2-oxoethoxy)ethoxy)acetic acid]	< 10 µM
O=C(NC[C@H]1OC[C@H](Nc2cncc(C(F)(F)F)n2)[C@@H](O)[C@H]1O)c1ccn[nH]1 [A49]	< 10 µM

Same assay, conditions: SPR, Biacore 8K, 25° C.; Table 1B, numeric bound; read-out: ASGPR Kd

Kd	Structure (SMILES)
> 30 µM	CC(C)N[C@H]1CO[C@H](CO)[C@H](O)[C@@H]1O [A163, (2R,3R,4R,5S)-2-(hydroxymethyl)-5-(isopropylamino)tetrahydro-2H-pyran-3,4-diol]

Same assay, conditions: SPR, Biacore 8K, 25° C.; Table 1B; read-out: ASGPR Kd

Kd	Structure (SMILES)
< 10 µM	C[C@H]1OC[C@H](Nc2cncc(C(F)(F)F)n2)[C@@H](O)[C@H]1O [A155, (2R,3R,4R,5S)-2-methyl-5-((6-(trifluoromethyl)pyrazin-2-yl)amino)tetrahydro-2H-pyran-3,4-diol]
< 10 µM	N#Cc1cc(N[C@H]2CO[C@H](CO)[C@H](O)[C@@H]2O)nc(C(F)(F)F)c1 [A139, 2-(((3S,4R,5R,6R)-4,5-dihydroxy-6-(hydroxymethyl)tetrahydro-2H-pyran-3-yl)amino)-6-(trifluoromethyl)isonicotinonitrile]

Same assay, conditions: SPR, Biacore 8K, 25° C.; Table 1C; read-out: ASGPR KD

Kd	Structure (SMILES)
< 10 µM	O[C@@H]1[C@H](O)[C@@H](Nc2cncc(C(F)(F)F)n2)CO[C@@H]1c1cn(-c2ccccc2)nn1 [A201, (2R,3R,4R,5S)-2-(1-phenyl-1H-1,2,3-triazol-4-yl)-5-((6-(trifluoromethyl)pyrazin-2-yl)amino)tetrahydro-2H-pyran-3,4-diol]
< 10 µM	O[C@@H]1[C@H](O)[C@@H](Oc2cccc(C(F)(F)F)n2)[C@@H](c2ccccc2)O[C@@H]1C(F)F [A330]
< 10 µM	O=C(O)c1ccc(CN2CCN(C[C@H]3OC[C@H](Nc4cncc(C(F)(F)F)n4)[C@@H](O)[C@H]3O)CC2)cc1F [A204, 4-((4-(((2R,3R,4R,5S)-3,4-dihydroxy-5-((6-(trifluoromethyl)pyrazin-2-yl)amino)tetrahydro-2H-pyran-2-yl)methyl)piperazin-1-yl)methyl)-2-fluorobenzoic acid]
< 10 µM	O[C@@H]1[C@H](O)[C@@H](Oc2cccc(C(F)(F)F)n2)CO[C@@H]1CN1CCN(c2cnccn2)CC1 [Compound A248]
< 10 µM	O=C(O)c1ccc(-c2ccc(OC[C@H]3OC[C@H](Oc4cccc(C(F)(F)F)n4)[C@@H](O)[C@H]3O)nn2)cc1 [A255]
< 10 µM	C[C@H]1O[C@H](c2cn(C3CCNCC3)nn2)[C@H](Oc2cccc(C(F)(F)F)n2)[C@@H](O)[C@H]1O [A218, (2R,3R,4S,5R,6R)-2-methyl-6-(1-(piperidin-4-yl)-1H-1,2,3-triazol-4-yl)-5-((6-(trifluoromethyl)pyridin-2-yl)oxy)tetrahydro-2H-pyran-3,4-diol]
< 10 µM	O[C@@H]1[C@H](O)[C@@H](Nc2cccc(C(F)(F)F)n2)CO[C@@H]1COc1ncccn1 [A226, (2R,3R,4R,5S)-2-((pyrimidin-2-yloxy)methyl)-5-((6-(trifluoromethyl)pyridine-2-yl)amino)tetrahydro-2H-pyran-3,4-diol]

Further lines, the compound ahead of its results:

Structure (SMILES)	Kd
O[C@@H]1[C@@H](Oc2cccc(C(F)(F)F)n2)COC(C(F)c2ccc(Cl)cc2)[C@@H]1O (some centres unmarked) [A308]	< 10 µM
O=C1c2ccccc2CN1C[C@H]1OC[C@H](Oc2cccc(C(F)(F)F)n2)[C@@H](O)[C@H]1O [A265]	< 10 µM
O[C@@H]1[C@H](O)[C@@H](Nc2cncc(C(F)(F)F)n2)CO[C@@H]1CN1Cc2ccccc2C1 [A231, (2R,3R,4R,5S)-2-(isoindolin-2-ylmethyl)-5-((6-(trifluoromethyl)pyrazin-2-yl)amino)tetrahydro-2H-pyran-3,4-diol]	< 10 µM
O[C@@H]1[C@H](O)[C@@H](Nc2cccc(C(F)(F)F)n2)CO[C@@H]1COc1cnccn1 [A239]	< 10 µM
O=C1c2ncccc2CN1C[C@H]1OC[C@H](Oc2cccc(C(F)(F)F)n2)[C@@H](O)[C@H]1O [A263]	< 10 µM
O[C@@H]1[C@H](O)[C@@H](Nc2cncc(C(F)(F)F)n2)CO[C@@H]1C(F)F [A179, (2S,3R,4R,5S)-2-(difluoromethyl)-5-((6-(trifluoromethyl)pyrazin-2-yl)amino)tetrahydro-2H-pyran-3,4-diol]	< 10 µM
C[C@H]1O[C@@H](c2ncncc2F)[C@H](Oc2cccc(C(F)(F)F)n2)[C@@H](O)[C@H]1O [A337]	< 10 µM
C[C@H]1O[C@@H](c2ccc(N3CCNCC3)cc2)[C@H](Oc2cccc(C(F)(F)F)n2)[C@@H](O)[C@H]1O [A303]	< 10 µM
O[C@@H]1[C@H](O)[C@@H](Oc2cccc(C(F)(F)F)n2)CO[C@@H]1CN1CCN(c2cccnn2)CC1 [A264]	< 10 µM
C[C@H]1O[C@H](C#CCO)[C@H](Oc2cccc(C(F)(F)F)n2)[C@@H](O)[C@H]1O [A286]	< 10 µM
O[C@@H]1[C@H](O)[C@@H](Oc2cccc(C(F)(F)F)n2)CO[C@@H]1CN1Cc2ccccc2C1 [A274]	< 10 µM
O[C@@H]1[C@H](O)[C@@H](Oc2cccc(C(F)(F)F)n2)CO[C@@H]1COc1ccc(Br)c(F)c1 [A198, (2R,3R,4S,5S)-2-((4-bromo-3-fluorophenoxy)methyl)-5-((6-(trifluoromethyl)pyridin-2-yl)oxy)tetrahydro-2H-pyran-3,4-diol]	< 10 µM
O[C@@H]1[C@H](O)[C@@H](Oc2cccc(C(F)(F)F)n2)CO[C@@H]1COc1ccc(N2CCNCC2)c(F)c1 [A247]	< 10 µM

Same assay, conditions: SPR, Biacore 8K, 25° C.; Table 1D, numeric bound; read-out: ASGPR KD

Kd	Structure (SMILES)
> 30 µM	O=C(OCc1ccccc1)N1CC(Nc2cn[nH]c2)[C@@H](O)[C@@H](O)C1 (some centres unmarked) [A371]

Same assay, conditions: SPR, Biacore 8K, 25° C.; Table 1D; read-out: ASGPR KD

Kd	Structure (SMILES)
< 10 µM	Cc1nnc(N2C[C@H](Oc3cccc(C(F)(F)F)n3)[C@@H](O)[C@@H](O)C2)s1 [A351]
< 10 µM	CN1C[C@H](Nc2nccc(C(F)(F)F)n2)[C@@H](O)[C@@H](O)C1 [A372]
< 10 µM	O[C@@H]1[C@H](O)[C@@H](Oc2cncc(C(F)(F)F)n2)CO[C@@H]1COc1cnccn1 [A421]
< 10 µM	O=C(OCc1ccccc1)N1C[C@H](Oc2cncc(C(F)(F)F)n2)[C@@H](O)[C@@H](O)C1 [A385]

Same assay, conditions: SPR, Biacore 8K, 25° C.; Table 1E, numeric bound; read-out: ASGPR KD

Kd	Structure (SMILES)
> 30 µM	C[C@H]1O[C@H](C(=O)NCCOCCOCC(=O)O)[C@H](Oc2cccc(C(F)(F)F)n2)[C@@H](O)[C@H]1O [A440]

Same assay, conditions: SPR, Biacore 8K, 25° C.; Table 1E; read-out: ASGPR KD

Kd	Structure (SMILES)
< 10 µM	C[C@H]1O[C@H](C(C)(C)O)[C@H](Oc2cccc(C(F)(F)F)n2)[C@@H](O)[C@H]1O [A433]
< 10 µM	C[C@H]1O[C@H](C2=CC3C4CCC(C4)C3C2=O)[C@H](Oc2cccc(C(F)(F)F)n2)[C@@H](O)[C@H]1O (some centres unmarked) [A435]
